Columns and labels:
[1] = test system: TNF-α production in human PBMC (peripheral blood mononuclear cells); assay: Inhibition of TNF-alpha production in human PBMC (IGEN technology); type: cell-based; conditions: inhibition of LPS-stimulated TNF-α production in human PBMC; measured and/or mean; read-out: PBMC pIC50 (IGEN assay) (converted)
Experimental: Test compounds are prepared as a ca. 10 mM stock solution in DMSO and a dilution series prepared in DMSO with 8 successive 3fold dilutions, either directly from the 10 mM stock solution or from a more dilute solution in DMSO. The compound is added to assay plates using a Biomek Fx liquid handling robot.
PBMC cells (peripheral blood mononuclear cells) are prepared from heparinised human blood from normal volunteers by centrifugation on histopaque at ca. 1000 g for ca. 30 minutes. The cells are collected from the interface, washed by centrifugation (ca. 1300 g, ca. 10 minutes) and resuspended in assay buffer (RPMI 1640 containing 10% foetal calf serum, 1% L-glutamine and 1% penicillin/streptomycin) at 1×10^6 cells/ml. Ca. 50 μl (ca. 50 ul) of cells are added to microtitre wells containing ca. 0.5 or ca. 1.0 μl (ul) of an appropriately diluted compound solution. Ca. […]
The supernatant is removed and the concentrations of TNF-α are determined by electrochemiluminescence assay using the IGEN technology or by ELISA (see below).
Ca. […] 50 μl (ul) of streptavidin/biotinylated anti-TNF-α antibody mix, ca. 25 μl ruthenium tagged anti-TNF-α monoclonal and ca. 100 μl PBS containing 0.1% bovine serum albumin are added to each well and the plates are sealed and shaken for ca. 2 hours before being read on an IGEN instrument.

[2] = test system: LPS-induced pulmonary neutrophilia; assay: LPS induced pulmonary neutrophilia in rats, intratracheally administered PDE4 inhibitors; type: in vivo; conditions: rat, intratracheal (i.t.) 2 hours prior to LPS challenge, wet suspension in saline/tween; for inhibition of the neutrophilia: dose not stated
Text: This assay is an animal model of inflammation in the lung—specifically neutrophilia induced by lipopolysaccharide (LPS)— and allows the study of putative inhibition of such neutrophilia (anti-inflammatory effect) by intratracheally (i.t.) administered PDE4 inhibitors. The PDE4 inhibitors are preferably in dry powder or wet suspension form. I.t. administration is one model of inhaled administration, allowing topical delivery to the lung.
Animals: Male CD (Sprague Dawley Derived) rats supplied by Charles River, Raleigh, N.C., USA or Charles River, United Kingdom are housed in groups of 5 rats per cage, acclimatized after delivery for at least 5 days with bedding/nesting material regularly changed, fed on SDS diet R1 pelleted food given ad lib, and supplied with daily-changed pasteurized animal grade drinking water.
Device for wet suspension administration: This is similar to the above but a blunt dosing needle, whose forward end is slightly angled to the needle axis, is used, with a flexible plastic portex canula inserted into the needle.
Wet suspensions of the drug (aqueous) can be prepared by adding the required volume of vehicle to the drug; the vehicle used can for example be saline alone or a mixture of saline/tween (e.g. 0.2% tween 80). The wet suspension is usually sonicated for ca. 10 minutes prior to use.
Preparation, and dosing with PDE 4 inhibitor: Rats are anaesthetized by placing the animals in a sealed Perspex chamber and exposing them to a gaseous mixture of isoflurane (4.5%), nitrous oxide (3 litres.minute^−1) and oxygen (1 litre.minute^−1). Once anaesthetized, the animals are placed onto a stainless steel i.t. dosing support table. They are positioned on their back at approximately a 35° angle. A light is angled against the outside of the throat to highlight the trachea. […]
Neutrophil cell counts: The Bronchoalveolar lavage (BAL) samples are centrifuged at ca. 1300 rpm for ca. 7 minutes. […] The total cells are also counted from the resuspension. From these two counts, the total numbers of neutrophils in the BAL are determined. […]

Row | Structure (SMILES) | IC50 [1] [nM] | ED50 for inhibition of neutrophilia [2] | inhibition of the neutrophilia [2]
1 | CCc1nc2c(cnn2CC)c(NC2CCOCC2)c1CNC(=O)c1ccc(-c2ccc(C(=O)NCc3c(CC)nc4c(cnn4CC)c3NC3CCOCC3)cc2)cc1 [Example 23, N,N′-bis{[1,6-diethyl-4-(tetrahydro-2H-pyran-4-ylamino)-1H-pyrazolo[3,4-b]pyridin-5-yl]methyl}-4,4′-biphenyldicarboxamide] | ~0.0501 | about 50 micrograms/kg body weight | –
2 | CCn1ncc2c(NC3CCOCC3)c(CNC(=O)c3cccc(-c4cccc(C(=O)NCc5c(C)nc6c(cnn6CC)c5NC5CCOCC5)c4)c3)c(C)nc21 [Example 29, N,N′-bis{[1-ethyl-6-methyl-4-(tetrahydro-2H-pyran-4-ylamino)-1H-pyrazolo[3,4-b]pyridin-5-yl]methyl}-3,3′-biphenyldicarboxamide] | – | – | about 40%
3 | CCc1nc2c(cnn2CC)c(NC2CCOCC2)c1CNC(=O)c1ccc(C(=O)NCc2c(CC)nc3c(cnn3CC)c2NC2CCOCC2)o1 [Example 35, N,N′-bis{[1,6-diethyl-4-(tetrahydro-2H-pyran-4-ylamino)-1H-pyrazolo[3,4-b]pyridin-5-yl]methyl}-2,5furandicarboxamide] | – | – | about 43%

Source: patent US20090326003A1, “PYRAZOLO (3, 4-B) PYRIDINE DERIVATIVES AS PDE4 INHIBITORS” (priority 2006, published 2009)
